How the values were obtained:
[1] = refractive index (Na D-line) (dimensionless); wn = mass fraction of the nth substance listed; conditions: 101 kPa, Liquid, Standard Abbe refractometry
[2] = wn = mass fraction of the nth substance listed; conditions: 101 kPa, Liquid, Vibrating tube method

C[P+](c1ccccc1)(c1ccccc1)c1ccccc1.[Br-] [methyltriphenylphosphonium bromide] + CN(CCO)CCO
Conditions	mass density, w1 = 0.1578 [kg/m3]	mass density, w1 = 0.2306 [kg/m3]	mass density, w1 = 0.2998 [kg/m3]	refractive index, w1 = 0.1578	refractive index, w1 = 0.2306	refractive index, w1 = 0.2998
[1], 293.15 K	–	–	–	1.49579	1.50867	1.52077
[1], 298.15 K	–	–	–	1.49402	1.50694	1.51904
[1], 303.15 K	–	–	–	1.49224	1.50517	1.51732
[1], 308.15 K	–	–	–	1.49037	1.5034	1.51557
[1], 313.15 K	–	–	–	1.48865	1.50162	1.51383
[1], 318.15 K	–	–	–	1.4869	1.49961	1.51212
[1], 323.15 K	–	–	–	1.48502	1.49793	1.5103
[1], 328.15 K	–	–	–	1.48313	1.49584	1.5083
[1], 333.15 K	–	–	–	1.48114	1.4942	1.50644
[1], 338.15 K	–	–	–	1.47935	1.49244	1.50466
[1], 343.15 K	–	–	–	1.47746	1.49064	1.50288
[2], 293.15 K	1086.84	1106.7	1124.09	–	–	–
[2], 298.15 K	1083.1	1102.99	1120.4	–	–	–
[2], 303.15 K	1079.34	1099.26	1116.71	–	–	–
[2], 308.15 K	1075.59	1095.54	1113.03	–	–	–
[2], 313.15 K	1071.84	1091.82	1109.36	–	–	–
[2], 318.15 K	1068.08	1088.09	1105.69	–	–	–
[2], 323.15 K	1064.32	1084.36	1102.01	–	–	–
[2], 328.15 K	1060.54	1080.63	1098.34	–	–	–
[2], 333.15 K	1056.77	1076.9	1094.66	–	–	–
[2], 338.15 K	1052.98	1073.17	1090.99	–	–	–
[2], 343.15 K	1049.19	1069.43	1087.31	–	–	–
[2], 348.15 K	1045.47	1065.72	1083.63	–	–	–
[2], 353.15 K	1041.65	1062.05	1080.06	–	–	–

— the NIST ThermoML archive (doi:10.1016/j.jct.2018.12.014)
